Data published in BigSolDB 2.1.

C=C(C)[C@@H]1CC[C@]2(CO)CC[C@]3(C)[C@H](CC[C@@H]4[C@@]5(C)CC[C@H](O)C(C)(C)[C@@H]5CC[C@]43C)[C@@H]12
solubility (mole fraction)
Conditions | 278.2 K | 288.2 K | 298.2 K | 308.2 K | 318.2 K
in acetone | 0.000689 | 0.00101 | 0.0015 | 0.00203 | 0.00243
in ethanol | 0.000842 | 0.00096 | 0.00107 | 0.00124 | 0.00135
